The values that follow come from patent US4376771A, “6-(p-Acylaminophenyl)-4,5-dihydropyridaz-3-ones and therapeutic agents containing said compounds” (BASF Aktiengesellschaft, priority 1977, dated 1983).

One data set has as its system human thrombocytes. Nature of the data set: Inhibition of the collagen-induced aggregation of human thrombocytes in vitro. Type of data set: cell-based. Particulars: for EC50: 10 min, read-out: Inhibition of thrombocyte aggregation EC 50%; for Inhibition of thrombocyte aggregation R.E. (relative effectiveness): acetylsalicylic acid = 1.00. The procedure:
1. Inhibition of the collagen-induced aggregation of human thrombocytes in vitro.
Thrombocyte-rich plasma is obtained by centrifuging venous citrate blood (300 g, 10 minutes duration at 4° C.). The photometric measurement of the thrombocyte aggregation is carried out with addition of MgCl2 (final concentration 10 millimoles/l) and of collagen Stago (final concentration 0.02 mg/ml) in a Born Mk 3 aggregometer. The maximum extinction change/sec is used as a measure of the aggregation.
The aggregation-inhibiting activity of the substances is tested after an incubation time of 10 minutes.
(§1) The effective doses or effective concentrations were calculated from the linear relationships between the logarithm of the dose or concentration and the logarithm of the effect, by means of regression analysis.
(§2) Acetylsalicyclic acid was used as the reference substance for the inhibition of thrombocyte aggregation and dihydralazine was used as the reference substance for the anti-hypertensive effect.

The subject of another data set is narcotized rats. Kind of data set: Anti-hypertensive effect on narcotized rats. Type of data set: in vivo, male Sprague-Dawley rats. As to conditions: for ED20: Rattus norvegicus, ip, dose at which the blood pressure falls by 20%, read-out: Lowering of blood pressure ED 20%; for ED20 / Lowering of blood pressure R.E. (relative effectiveness): rats, urethane narcosis, intraperitoneal; for anti-hypertensive effect (in words): Table 1; for Lowering of blood pressure R.E. (relative effectiveness): dihydralazine = 1.00; for anti-hypertensive power relative to dihydralazine: times more powerful than dihydralazine. The procedure:
3. Anti-hypertensive effect on narcotized rats.
To test the anti-hypertensive effect, the substances are administered intraperitoneally to groups of 3-5 male Sprague-Dawley rats weighing 240-280 g, under urethane narcosis ([…] given intraperitoneally). The measurement of the blood pressure in the carotid artery is carried out by means of Statham transducers. The ED 20% is determined as the dose which lowers the mean carotid blood pressure by 20%.
as §1, §2

Data set [1] can be described thus: Toxicity (LD 50), mice, intraperitoneal administration. It is filed as in vivo. Particulars: mouse, in vivo, ip; mice, intraperitoneal administration. The text has this:
(§3) ^(3) Mice. Intraperitoneal administration.

In data set [2] the test system is spontaneously hypertonic rats. Kind of data set: Anti-hypertensive effect on spontaneously hypertonic rats. Type of data set: in vivo, male spontaneously hypertonic Okamoto rats. As to conditions: for ED20: Rattus norvegicus, 2 hours, dose which lowers the blood pressure by 20% compared to the control group, read-out: Anti-hypertensive effect ED 20%; for ED20 / Anti-hypertensive effect R.E. (relative effectiveness): spontaneously hypertonic rats, oral; for Anti-hypertensive effect R.E. (relative effectiveness): dihydralazine 1.0. As to the method:
4. Anti-hypertensive effect on spontaneously hypertonic rats.
The substances are administered orally to groups of 4-8 male spontaneously hypertonic Okamoto rats weighing 270-340 g.
Before, and 2 hours after, the administration, the systolic blood pressure is measured non-surgically by means of piezo-electric crystal sensors.
The ED 20% is determined as the dose which lowers the systolic pressure by 20%, taking into account the values found with untreated control animals.
as §1, §2

The next data set concerns rat thrombocytes. Nature of the data set: Inhibition of the collagen-induced aggregation of rat thrombocytes ex vivo. It is filed as in vivo, male Sprague-Dawley rats. As to conditions: for ED33: Rattus norvegicus, read-out: Inhibition of thrombocyte aggregation ED 33%; for Inhibition of thrombocyte aggregation R.E. (relative effectiveness): acetylsalicylic acid 1.0. As to the method: 2. Inhibition of the collagen-induced aggregation of rat thrombocytes ex vivo.
The substances are administered orally to groups of 10-15 male Sprague-Dawley rats weighing 200-250 g. 2-4 hours after administration, blood is taken under ether narcosis and thrombocyte-rich plasma is obtained by centrifuging. The aggregation after addition of collagen is measured as indicated above.
as §1, §2

For a further data set, the system named is Mice. Nature of the data set: Toxicity (LD 50), mice, intraperitoneal administration. Type of data set: in vivo. As to conditions: compared with acetylsalicylic acid and dihydralazine; Table 2.
Excerpt: as §3

Setting [3] is: human thrombocytes, in vitro, collagen 0.02 mg/ml, 10 minutes incubation, concentration which inhibits collagen-induced aggregation by 50%.

The structures appear in SMILES notation. Converted amounts (≈) assume the structure as drawn. Where two headings read alike, the source gives them in different places.

Take `CC1CC(=O)NN=C1c1ccc(NC(=O)CCCCl)cc1` (stereo not shown) [Example 8, 6-[p-(4-chlorobutyrylamino)-phenyl]-5-methyl-4,5-dihydropyridaz-3-one]: the EC50 in the data set with human thrombocytes (setting [3]) was 1.7 µg/mL (≈ 5.52 µM). Moreover, in the data set with human thrombocytes (human thrombocytes, in vitro), the “Inhibition of thrombocyte aggregation R.E. (relative effectiveness)” value (“Inhibition … (relative effectiveness)” below) was found to be 291. In addition, in the data set on narcotized rats, the ED20 was found to be 0.32 mg/kg, the “anti-hypertensive effect (in words)” value is recorded as “about as active as dihydralazine” and the “Lowering of blood pressure R.E. (relative effectiveness)” value (“Lowering … (relative effectiveness)” for short) is on record as 1.06.

On to `CC1CC(=O)NN=C1c1ccc(NC(=O)C(C)(C)CBr)cc1` (stereo not shown) [Example 12], for which, in the data set with human thrombocytes (setting [3]), the EC50 was determined as 0.44 µg/mL (≈ 1.2 µM). For the same compound, in the data set with human thrombocytes (human thrombocytes, in vitro), the “Inhibition … (relative effectiveness)” value is reported as 1,120. Besides, in the data set on narcotized rats, the ED20 was found to be 0.34 mg/kg, the “anti-hypertensive effect (in words)” value was “about as active as dihydralazine” and the “Lowering … (relative effectiveness)” value is recorded as 1.00.

Consider `CC1CC(=O)NN=C1c1ccc(NC(=O)C(C)(C)CCl)cc1` (stereo not shown) [Example 11], for which the EC50 with human thrombocytes (setting [3]) was found to be 0.47 µg/mL (≈ 1.46 µM). For the same compound, in the data set on human thrombocytes (human thrombocytes, in vitro), the “Inhibition … (relative effectiveness)” value was 1,050. Also, in the data set with narcotized rats, the ED20 was 0.61 mg/kg and the “Lowering … (relative effectiveness)” value is given as 0.56.

Take `CC(Cl)C(=O)Nc1ccc(C2=NNC(=O)CC2)cc1` (stereo not shown) [Example 4, 6-[p-(2-chloropropionylamino)-phenyl]-4,5-dihydropyridaz-3-one]: the EC50 with human thrombocytes (setting [3]) was 0.27 µg/mL (≈ 0.965 µM). In addition, in the data set on human thrombocytes (human thrombocytes, in vitro), the “Inhibition … (relative effectiveness)” value is 1,830. Moreover, in the data set with narcotized rats, the ED20 was 0.53 mg/kg, the “anti-hypertensive effect (in words)” value was “about as active as dihydralazine” and the “Lowering … (relative effectiveness)” value was 0.64.

Take `O=C1CCC(c2ccc(NC(=O)CCl)cc2)=NN1` [Example 1, 6-(p-chloroacetylaminophenyl)-4,5-dihydropyridaz-3-one]: the EC50 in the data set with human thrombocytes (setting [3]) was determined as 0.25 µg/mL (≈ 0.941 µM). Besides, in the data set on human thrombocytes (human thrombocytes, in vitro), the “Inhibition … (relative effectiveness)” value is on record as 1,980. Also, in the data set with narcotized rats, the ED20 stood at 0.37 mg/kg, the “anti-hypertensive effect (in words)” value was “about as active as dihydralazine” and the “Lowering … (relative effectiveness)” value is 0.92.

On to `CC1CC(=O)NN=C1c1ccc(NC(=O)C(C)(C)Br)cc1` (stereo not shown) [Example 17], for which, in the data set on human thrombocytes (setting [3]), the EC50 was 0.89 µg/mL (≈ 2.53 µM). Further, the “Inhibition … (relative effectiveness)” value in the data set with human thrombocytes (human thrombocytes, in vitro) was found to be 555. Further, in the data set on narcotized rats, the ED20 was determined as 2.93 mg/kg, the “anti-hypertensive effect (in words)” value is “slight” and the “Lowering … (relative effectiveness)” value was 0.12.

On to `NNc1nnc(NN)c2ccccc12` [Dihydralazine, dihydralazine, reference compound], for which, in the data set on human thrombocytes (setting [3]), the EC50 was 149 µg/mL (≈ 783 µM). The “Inhibition … (relative effectiveness)” value in the data set with human thrombocytes (human thrombocytes, in vitro) is 3.32. Moreover, in data set [1], the LD50 (in general, the dose expected to kill half of the subjects tested) was 106 mg/kg. In addition, in the data set on narcotized rats, the ED20 turned out to be 0.34 mg/kg and the “Lowering … (relative effectiveness)” value is recorded as 1.00. Also, in data set [2], the ED20 was 6.85 mg/kg and the “Anti-hypertensive effect R.E. (relative effectiveness)” value was 1.0.

For the compound `CC1CC(=O)NN=C1c1ccc(NC(=O)CCl)cc1` (stereo not shown) [Example 3, 6-(p-chloroacetylaminophenyl)-5-methyl-4,-dihydropyridaz-3-one], the EC50 in the data set with human thrombocytes (setting [3]) was 0.11 µg/mL (≈ 0.393 µM). For the same compound, in the data set with human thrombocytes (human thrombocytes, in vitro), the “Inhibition … (relative effectiveness)” value was 4,490. For the same compound, in the data set on narcotized rats, the ED20 came to 0.15 mg/kg, the “anti-hypertensive effect (in words)” value was “about as active as dihydralazine” and the “Lowering … (relative effectiveness)” value is 2.27.

In the case of `CC(Br)C(=O)Nc1ccc(C2=NNC(=O)CC2C)cc1` (stereo not shown) [Example 16], the EC50 with human thrombocytes (setting [3]) stood at 0.58 µg/mL (≈ 1.71 µM). The “Inhibition … (relative effectiveness)” value in the data set with human thrombocytes (human thrombocytes, in vitro) was 852. In addition, in the data set on narcotized rats, the ED20 turned out to be 0.4 mg/kg, the “anti-hypertensive effect (in words)” value is “about as active as dihydralazine” and the “Lowering … (relative effectiveness)” value amounted to 0.85.

As to `CC1CC(=O)NN=C1c1ccc(NC(=O)CCCl)cc1` (stereo not shown) [Example 7, 6-[p-(3-chloropropionylamino)-phenyl]-5-methyl-4,5-dihydropyridaz-3-one], in the data set with human thrombocytes (setting [3]), the EC50 amounted to 0.3 µg/mL (≈ 1.02 µM). Further, in the data set on human thrombocytes (human thrombocytes, in vitro), the “Inhibition … (relative effectiveness)” value was 1,650. For the same compound, in the data set on narcotized rats, the ED20 came out at 0.045 mg/kg, the “Lowering … (relative effectiveness)” value is reported as 7.56 and the “anti-hypertensive power relative to dihydralazine” value was 7.6 times.

As for `CCC(Br)C(=O)Nc1ccc(C2=NNC(=O)CC2C)cc1` (stereo not shown) [Example 9], in the data set on human thrombocytes (setting [3]), the EC50 was found to be 0.27 µg/mL (≈ 0.767 µM). Besides, in the data set with human thrombocytes (human thrombocytes, in vitro), the “Inhibition … (relative effectiveness)” value is listed as 1,830. For the same compound, in the data set on narcotized rats, the ED20 stood at 1.49 mg/kg, the “anti-hypertensive effect (in words)” value is on record as “slight” and the “Lowering … (relative effectiveness)” value amounted to 0.23.

On to `CC(=O)Oc1ccccc1C(=O)O` [Acetylsalicylic acid, acetylsalicylic acid, reference compound], for which the EC50 with human thrombocytes (Homo sapiens) worked out at 494 µg/mL (≈ 2740 µM). Also, the LD50 in data set [1] turned out to be 167 mg/kg. Further, the ED33 in the data set on rat thrombocytes (po) is 134 mg/kg. Further, in the data set with rat thrombocytes (rats, oral, ex vivo), the “Inhibition … (relative effectiveness)” value turned out to be 1.0.

For the compound `O=C1CCC(c2ccc(NC(=O)CCCl)cc2)=NN1` [Example 6, 6-[p-(3-chloropropionylamino)-phenyl]-4,5-dihydropyridaz-3-one], the EC50 with human thrombocytes (setting [3]) was 0.35 µg/mL (≈ 1.25 µM). Besides, in the data set on human thrombocytes (human thrombocytes, collagen-induced, Table 1), the “inhibition of thrombocyte aggregation (in words)” value is listed as “highly specific thrombocyte aggregation-inhibiting effect”. Besides, the “Inhibition … (relative effectiveness)” value with human thrombocytes (human thrombocytes, in vitro) was 1,410. In addition, in the data set with narcotized rats, the ED20 worked out at 10 mg/kg, the “anti-hypertensive effect (in words)” value is on record as “slight” and the “Lowering … (relative effectiveness)” value was determined as 0.03.

Take `CC(Cl)C(=O)Nc1ccc(C2=NNC(=O)CC2C)cc1` (stereo not shown) [Example 5, 6-[p-(2-chloropropionylamino)-phenyl]-5-methyl-4,5-dihydropyridaz-3-one]: in the data set on human thrombocytes (setting [3]), the EC50 came to 0.031 µg/mL (≈ 0.106 µM). In addition, the “Inhibition … (relative effectiveness)” value in the data set on human thrombocytes (human thrombocytes, in vitro) was 15,900. Also, the “acute toxicity (in words)” value with Mice is “somewhat less than that of acetylsalicyclic acid and dihydralazine”. The LD50 in data set [1] was 231 mg/kg. Also, in the data set with narcotized rats, the ED20 was found to be 0.0079 mg/kg, the “Lowering … (relative effectiveness)” value was 43.04 and the “anti-hypertensive power relative to dihydralazine” value amounted to 43 times. Moreover, in data set [2], the ED20 was 1.16 mg/kg and the “Anti-hypertensive effect R.E. (relative effectiveness)” value is on record as 5.9. In data set [2] (spontaneously hypertensive rats, oral dose of 1.2 mg/kg), the “lowering of blood pressure” value was “about 20%”. Also, in the data set with rat thrombocytes (rats, oral, ex vivo, Example 5 given 2 hours, acetylsalicylic acid 4 hours before measuring, dose which inhibits collagen-induced aggregation by 33%), the ED33 was determined as 0.82 mg/kg. The “inhibition of thrombocyte aggregation after oral administration (in words)” value in the data set with rat thrombocytes (oral, Table 2) was “very strong inhibition of thrombocyte aggregation”. Besides, in the data set on rat thrombocytes (rats, oral, ex vivo), the “Inhibition … (relative effectiveness)” value was found to be 163.
